From paper PMC8296573, “Synthesis and Biological Evaluation of Fingolimod Derivatives as Antibacterial Agents” (ACS Omega, 2021)
≈ marks a conversion by molar mass, not a printed value. Where two headings read alike, the source gives them in different places.

Experiments:
S. aureus ATCC 12598 = assay: Antibacterial activity, pre-exposure; type: cell-based, Staphylococcus aureus; conditions: for Average inhibition %, biofilms viability / Average inhibition %, planktonic cells viability / inhibition at 5 µM / inhibition at 10 µM / inhibition at 15 µM / inhibition at 25 µM: S. aureus ATCC 12598, pre-exposure, ± SD
Procedure, shortened: (§1)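 For planktonic resazurin, 20 μM final was used: 3–10 min at RT for S. aureus and A. baumannii, 20 min at 37 °C for P. aeruginosa. Cultures had been co-incubated with compound for 18 h at 37 °C, 220 rpm. Biofilms were then assessed by resazurin and crystal violet.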

P. aeruginosa ATCC 9027 = assay: Antibacterial activity, pre-exposure; type: cell-based, Pseudomonas aeruginosa; conditions: for Average inhibition %, biofilms viability / Average inhibition %, planktonic cells viability / inhibition at 50 µM / inhibition at 100 µM / inhibition at 150 µM / inhibition at 200 µM: P. aeruginosa ATCC 9027, pre-exposure, ± SD; for inhibition at 50 µM / inhibition at 100 µM / inhibition at 150 µM / inhibition at 200 µM: Pseudomonas aeruginosa, ATCC9027
Procedure, shortened: as §1

S. aureus ATCC 25923 [1] = assay: Antibacterial activity, pre-exposure (planktonic cells and biofilm formation); type: cell-based, Staphylococcus aureus; conditions: for MIC / inhibition at 5 µM / inhibition at 10 µM / inhibition at 15 µM / inhibition at 25 µM: Staphylococcus aureus, ATCC25923; for inhibition at 5 µM / inhibition at 10 µM / inhibition at 15 µM / inhibition at 25 µM / Average inhibition %, biofilms viability / Average inhibition %, planktonic cells viability: ± SD
Procedure, shortened: as §1

S. aureus ATCC 25923 [2] = assay: Antibacterial activity, post-exposure on preformed 18-h-old biofilms; type: cell-based, Staphylococcus aureus; conditions: ± SD; for inhibition at 25 µM / inhibition at 50 µM / inhibition at 100 µM / inhibition at 200 µM: Staphylococcus aureus; for inhibition at 25 µM: ATCC25923, 25 µM; for inhibition at 50 µM: ATCC25923, 50 µM; for inhibition at 100 µM: ATCC25923, 100 µM; for inhibition at 200 µM: ATCC25923, 200 µM
Procedure, shortened: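 Compounds were applied to preformed 18-h biofilms after medium change and left 24 h. Read-outs: planktonic OD plus resazurin fluorescence (20 μM), biofilm metabolic activity by resazurin 30 min at 37 °C, then biomass by crystal violet absorbance at 595 nm after ethanol fixation.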

A. baumannii NCTC 13423 = assay: Antibacterial activity, pre-exposure; type: cell-based, Acinetobacter baumannii; conditions: for Average inhibition %, biofilms viability / Average inhibition %, planktonic cells viability / inhibition at 10 µM / inhibition at 15 µM / inhibition at 25 µM / inhibition at 50 µM: A. baumannii NCTC 13423, pre-exposure, ± SD; for inhibition at 10 µM / inhibition at 15 µM / inhibition at 25 µM / inhibition at 50 µM / MIC: Acinetobacter baumannii, NCTC13423
Procedure, shortened: as §1

[3] = 50 µM, read-out: Average inhibition %, biofilms biomass
[4] = 50 µM, read-out: Average inhibition %, planktonic cells turbidity
[5] = read-out: Average inhibition %, biofilms biomass
[6] = read-out: Average inhibition %, planktonic cells turbidity

MIC (S. aureus ATCC 12598; Staphylococcus aureus, ATCC12598, pre-exposure, 18 h, read-out: MIC S. aureus ATCC 12598): 10 µM (≈ 3.52 µg/mL)
MIC P. aeruginosa ATCC 9027 (P. aeruginosa ATCC 9027; pre-exposure, Inactive = no activity up to 200 μM, > = some inhibition but no MIC reached): Inactive
MIC (S. aureus ATCC 25923 [1]; lowest concentration with no visible growth (>90% inhibition of turbidity and viability of planktonic cells), 18 h, read-out: MIC S. aureus ATCC 25923): 5 to 15 µM (≈ 1.76 to 5.27 µg/mL)
MIC (S. aureus ATCC 25923 [1]; pre-exposure, lowest value among replicates, read-out: MIC S. aureus ATCC 25923, for some replicates): 5 µM (≈ 1.76 µg/mL)
MIC (S. aureus ATCC 25923 [1]; read-out: MIC (S. aureus)): 5 to 15 µM (≈ 1.76 to 5.27 µg/mL)
MIC (A. baumannii NCTC 13423; pre-exposure, Inactive = no activity up to 50 μM, > = some inhibition but no MIC reached, read-out: MIC A. baumannii NCTC 13423): 15 µM (≈ 5.27 µg/mL)
MIC (A. baumannii NCTC 13423; supplementary molecular formula strings sheet, read-out: MIC (A. baumannii)): 15 µM (≈ 5.27 µg/mL)
Compound: CCCCCCCCCCc1ccc(C(O)CC(N)(CO)CO)cc1 (stereo not drawn) [Compound 55, 3-Amino-3-(hydroxymethyl)-1-(4-decylphenyl)butane-1,4-diol]
Average inhibition %, biofilms viability (S. aureus ATCC 12598; 5 µM): 15.2 ± 6.4%
Average inhibition %, planktonic cells viability (S. aureus ATCC 12598; 5 µM): 7.6 ± 8.8%
Average inhibition %, biofilms viability (S. aureus ATCC 12598; 10 µM): 99.2 ± 0.1%
Average inhibition %, planktonic cells viability (S. aureus ATCC 12598; 10 µM): 99.8 ± 0%
Average inhibition %, biofilms viability (S. aureus ATCC 12598; 15 µM): 99.5 ± 0.3%
Average inhibition %, planktonic cells viability (S. aureus ATCC 12598; 15 µM): 99.7 ± 0%
Average inhibition %, biofilms viability (S. aureus ATCC 12598; 25 µM): 99.6 ± 0%
Average inhibition %, planktonic cells viability (S. aureus ATCC 12598; 25 µM): 99.6 ± 0.1%
inhibition at 5 µM (S. aureus ATCC 12598; Staphylococcus aureus, ATCC12598, 5 µM, read-out: Average inhibition %, biofilms biomass): 27.6 ± 19.6%
inhibition at 5 µM (S. aureus ATCC 12598; Staphylococcus aureus, ATCC12598, 5 µM, read-out: Average inhibition %, planktonic cells turbidity): 21.2 ± 6.5%
inhibition at 10 µM (S. aureus ATCC 12598; Staphylococcus aureus, ATCC12598, 10 µM, read-out: Average inhibition %, biofilms biomass): 94.3 ± 1.2%
inhibition at 10 µM (S. aureus ATCC 12598; Staphylococcus aureus, ATCC12598, 10 µM, read-out: Average inhibition %, planktonic cells turbidity): 99.6 ± 0.1%
inhibition at 15 µM (S. aureus ATCC 12598; Staphylococcus aureus, ATCC12598, 15 µM, read-out: Average inhibition %, biofilms biomass): 93 ± 1.1%
inhibition at 15 µM (S. aureus ATCC 12598; Staphylococcus aureus, ATCC12598, 15 µM, read-out: Average inhibition %, planktonic cells turbidity): 99.4 ± 0.2%
inhibition at 25 µM (S. aureus ATCC 12598; Staphylococcus aureus, ATCC12598, 25 µM, read-out: Average inhibition %, biofilms biomass): 90.2 ± 2.1%
inhibition at 25 µM (S. aureus ATCC 12598; Staphylococcus aureus, ATCC12598, 25 µM, read-out: Average inhibition %, planktonic cells turbidity): 98.9 ± 0.3%
Average inhibition %, biofilms viability (P. aeruginosa ATCC 9027; 50 µM): 13.6 ± 11.8%
Average inhibition %, planktonic cells viability (P. aeruginosa ATCC 9027; 50 µM): 31.2 ± 8.9%
Average inhibition %, biofilms viability (P. aeruginosa ATCC 9027; 100 µM): 9.4 ± 9.2%
Average inhibition %, planktonic cells viability (P. aeruginosa ATCC 9027; 100 µM): 30.3 ± 25.5%
Average inhibition %, biofilms viability (P. aeruginosa ATCC 9027; 150 µM): 3.3 ± 4.6%
Average inhibition %, planktonic cells viability (P. aeruginosa ATCC 9027; 150 µM): 40.3 ± 27.1%
Average inhibition %, biofilms viability (P. aeruginosa ATCC 9027; 200 µM): 5 ± 5.6%
Average inhibition %, planktonic cells viability (P. aeruginosa ATCC 9027; 200 µM): 27.1 ± 15.6%
inhibition at 50 µM (P. aeruginosa ATCC 9027; [3]): 6.4 ± 8.2%
inhibition at 50 µM (P. aeruginosa ATCC 9027; [4]): 45.1 ± 5.7%
inhibition at 100 µM (P. aeruginosa ATCC 9027; 100 µM, read-out: Average inhibition %, biofilms biomass): 10.8 ± 8.8%
inhibition at 100 µM (P. aeruginosa ATCC 9027; 100 µM, read-out: Average inhibition %, planktonic cells turbidity): 49.4 ± 8.3%
inhibition at 150 µM (P. aeruginosa ATCC 9027; 150 µM, read-out: Average inhibition %, biofilms biomass): 12 ± 10.4%
inhibition at 150 µM (P. aeruginosa ATCC 9027; 150 µM, read-out: Average inhibition %, planktonic cells turbidity): 54.3 ± 13.8%
inhibition at 200 µM (P. aeruginosa ATCC 9027; 200 µM, read-out: Average inhibition %, biofilms biomass): 3.1 ± 2.7%
inhibition at 200 µM (P. aeruginosa ATCC 9027; 200 µM, read-out: Average inhibition %, planktonic cells turbidity): 59.4 ± 7.3%
inhibition at 5 µM (S. aureus ATCC 25923 [1]; pre-exposure, 5 µM, read-out: Average inhibition %, biofilms biomass): 48.4 ± 41.1%
inhibition at 5 µM (S. aureus ATCC 25923 [1]; pre-exposure, 5 µM, read-out: Average inhibition %, planktonic cells turbidity): 38.2 ± 53.8%
inhibition at 10 µM (S. aureus ATCC 25923 [1]; pre-exposure, 10 µM, read-out: Average inhibition %, biofilms biomass): 69.6 ± 23.5%
inhibition at 10 µM (S. aureus ATCC 25923 [1]; pre-exposure, 10 µM, read-out: Average inhibition %, planktonic cells turbidity): 43.5 ± 48.8%
inhibition at 15 µM (S. aureus ATCC 25923 [1]; pre-exposure, 15 µM, read-out: Average inhibition %, biofilms biomass): 93.4 ± 1.1%
inhibition at 15 µM (S. aureus ATCC 25923 [1]; pre-exposure, 15 µM, read-out: Average inhibition %, planktonic cells turbidity): 99 ± 0.6%
inhibition at 25 µM (S. aureus ATCC 25923 [1]; pre-exposure, 25 µM, read-out: Average inhibition %, biofilms biomass): 94.2 ± 1.1%
inhibition at 25 µM (S. aureus ATCC 25923 [1]; pre-exposure, 25 µM, read-out: Average inhibition %, planktonic cells turbidity): 98.8 ± 0.6%
Average inhibition %, biofilms viability (S. aureus ATCC 25923 [1]; pre-exposure, 5 µM): 50.6 ± 42%
Average inhibition %, planktonic cells viability (S. aureus ATCC 25923 [1]; pre-exposure, 5 µM): 33.2 ± 57.6%
Average inhibition %, biofilms viability (S. aureus ATCC 25923 [1]; pre-exposure, 10 µM): 66.7 ± 28.3%
Average inhibition %, planktonic cells viability (S. aureus ATCC 25923 [1]; pre-exposure, 10 µM): 43.1 ± 49.4%
Average inhibition %, biofilms viability (S. aureus ATCC 25923 [1]; pre-exposure, 15 µM): 99.2 ± 0.2%
Average inhibition %, planktonic cells viability (S. aureus ATCC 25923 [1]; pre-exposure, 15 µM): 99.8 ± 0.1%
Average inhibition %, biofilms viability (S. aureus ATCC 25923 [1]; pre-exposure, 25 µM): 99.6 ± 0.2%
Average inhibition %, planktonic cells viability (S. aureus ATCC 25923 [1]; pre-exposure, 25 µM): 99.8 ± 0.2%
Average inhibition %, biofilms viability (S. aureus ATCC 25923 [2]; 25 µM): 17.9 ± 13.2%
Average inhibition %, planktonic cells viability (S. aureus ATCC 25923 [2]; 25 µM): 0 ± 0%
Average inhibition %, biofilms viability (S. aureus ATCC 25923 [2]; 50 µM): 36.8 ± 8.3%
Average inhibition %, planktonic cells viability (S. aureus ATCC 25923 [2]; 50 µM): 0 ± 0%
Average inhibition %, biofilms viability (S. aureus ATCC 25923 [2]; 100 µM): 44.4 ± 9.7%
Average inhibition %, planktonic cells viability (S. aureus ATCC 25923 [2]; 100 µM): 70 ± 12.5%
Average inhibition %, biofilms viability (S. aureus ATCC 25923 [2]; 200 µM): 94 ± 8.6%
Average inhibition %, planktonic cells viability (S. aureus ATCC 25923 [2]; 200 µM): 100.4 ± 0%
inhibition at 25 µM (S. aureus ATCC 25923 [2]; [5]): 51.6 ± 18.4%
inhibition at 25 µM (S. aureus ATCC 25923 [2]; [6]): 15.7 ± 13.7%
inhibition at 50 µM (S. aureus ATCC 25923 [2]; [5]): 63.1 ± 9%
inhibition at 50 µM (S. aureus ATCC 25923 [2]; [6]): 9.8 ± 13.9%
inhibition at 100 µM (S. aureus ATCC 25923 [2]; [5]): 61.4 ± 3.4%
inhibition at 100 µM (S. aureus ATCC 25923 [2]; [6]): 67.6 ± 10.3%
inhibition at 200 µM (S. aureus ATCC 25923 [2]; [5]): 80.8 ± 4.2%
inhibition at 200 µM (S. aureus ATCC 25923 [2]; [6]): 84.2 ± 3.1%
Average inhibition %, biofilms viability (A. baumannii NCTC 13423; 10 µM): 1.8 ± 3.2%
Average inhibition %, planktonic cells viability (A. baumannii NCTC 13423; 10 µM): 3.8 ± 3.3%
Average inhibition %, biofilms viability (A. baumannii NCTC 13423; 15 µM): 92.7 ± 9.4%
Average inhibition %, planktonic cells viability (A. baumannii NCTC 13423; 15 µM): 98.1 ± 2.3%
Average inhibition %, biofilms viability (A. baumannii NCTC 13423; 25 µM): 100.6 ± 0.9%
Average inhibition %, planktonic cells viability (A. baumannii NCTC 13423; 25 µM): 99.7 ± 0%
Average inhibition %, biofilms viability (A. baumannii NCTC 13423; 50 µM): 101 ± 1%
Average inhibition %, planktonic cells viability (A. baumannii NCTC 13423; 50 µM): 99.5 ± 0%
inhibition at 10 µM (A. baumannii NCTC 13423; 10 µM, read-out: Average inhibition %, biofilms biomass): 0.2 ± 0.4%
inhibition at 10 µM (A. baumannii NCTC 13423; 10 µM, read-out: Average inhibition %, planktonic cells turbidity): 0.8 ± 1.4%
inhibition at 15 µM (A. baumannii NCTC 13423; 15 µM, read-out: Average inhibition %, biofilms biomass): 74.2 ± 18.9%
inhibition at 15 µM (A. baumannii NCTC 13423; 15 µM, read-out: Average inhibition %, planktonic cells turbidity): 97.2 ± 2.5%
inhibition at 25 µM (A. baumannii NCTC 13423; 25 µM, read-out: Average inhibition %, biofilms biomass): 88.5 ± 6.6%
inhibition at 25 µM (A. baumannii NCTC 13423; 25 µM, read-out: Average inhibition %, planktonic cells turbidity): 99.5%
inhibition at 50 µM (A. baumannii NCTC 13423; [3]): 87.4 ± 4.1%
inhibition at 50 µM (A. baumannii NCTC 13423; [4]): 99.1%
